Measurements: publication PMC6037779, “Repurposing drugs to target the malaria parasite unfolding protein response” (Scientific Reports, 2018)
Where two headings read alike, the source gives them in different places.

Key:
[1] = target: T1, PfGRP78-NBD wt (Plasmodium falciparum, UniProt Q05866); assay: biochemical; assay type: binding
T1 construct: His-tag (pET28-MHL, TEV site) (N, cleaved yes); made in house; host or cells: E. coli BL21(DE3)
Method: (§1) To quantify the binding affinities of PfGRP78-NBD for the selected compounds, dissociation constants (Kd) were determined by surface plasmon resonance (SPR). […] Purified PfGRP78-FL, PfGRP78-NBD wild-type and mutant, and human GRP78-NBD were immobilized on a CM5 sensorchip using NHS/EDC coupling following the manufacturer protocol to a level of <10,000 RUs, a reference surfaces without immobilized proteins served as a control for nonspecific binding and refractive index changes. […] The running buffer was 10 mM HEPES, pH 7.4, 150 mM NaCl, 0.005% P20, 1% DMSO and 2 mM MgCl2. Buffer only injections were used as blanks. The Biacore responses recorded during the 30 seconds of the injection were used to estimate the association constant (kon) and the 300 seconds after the injection were used to estimate the dissociation constant (koff). All dissociation and kinetic constants were estimated using double subtracted sensorgrams[40] using BiaEvaluation Software (GE Healthcare). All the reported parasite dissociation constants (Kd) were estimated with affinity analysis, and all the reported human Kds were calculated from kinetic constants.

[2] = target: T2, huGRP78-NBD (Homo sapiens, UniProt P11021); assay: SPR (Biacore) binding to human GRP78-NBD
T2 construct: PfGRP78-NBD wild type and mutant, and human GRP78-NBD were buffered in 25 mM hepes pH 7.5
Method: as §1

[3] = system: Plasmodium falciparum 3D7; assay: In vitro growth inhibition assay (SYBR Green I), strain 3D7; assay type: cell-based; details: read-out: EC50, growth inhibition, P. falciparum 3D7
Method: (§2) A major goal of our study was to evaluate the drug target potential of P. falciparum GRP78, thus we evaluated the effect of the chaperone inhibition on the malaria parasite. Our approach took advantage of several GRP78 inhibitors (Fig. 3a) previously characterized against human cancer cell lines, which were commercially available[20],[24]–[27]. These compounds were tested against two different parasite strains with opposite sensitivity towards the antimalarial drug chloroquine, 3D7 (sensitive) and W2 (resistant). […] A synchronized P. falciparum culture, with over 80% ring forms, was used in the growth inhibition assay. Each strain was assayed at 0.5% parasitaemia and 1.5% hematocrit. A 190 µL aliquot of parasite culture was dispensed per well to microplates that were pre-dispensed with the compounds at various dilutions. […] Dilutions of GRP78 inhibitors and DHA were prepared in water with a final concentration of DMSO below 0.05% (v/v). […] After incubation, the plates were subject to a freeze-thaw cycle (−80 °C) and the parasite growth was quantified by the SYBR Green I method as previously described. Briefly, 100 µl of homogenized parasite culture was transferred into 96-well black plates. 100 µl of SYBR Green lysis buffer (2x SYBR Green I, 100 mM Tris-HCl pH 7.5, 10 mM EDTA, 0.016% Saponin and 1.6% Triton X-100) were added to each well. The plates were incubated at room temperature in darkness for 1 hour.
(§3) Growth inhibition experiments were conducted at least three times per compound. […] The statistical analysis was performed with the software Prism 7 (GraphPad Software, San Diego, CA).

[4] = system: Plasmodium falciparum W2; assay: In vitro growth inhibition assay (SYBR Green I), strain W2; assay type: cell-based; details: read-out: EC50, growth inhibition, P. falciparum W2
Method: as §2, §3

[5] = target: T3, PfGRP78-NBD (Plasmodium falciparum, UniProt Q05866); assay: DSF thermal shift, PfGRP78-NBD; assay type: binding; details: compound 0.5 mM; shifts above or below 1 °C significant
T3 construct: His-tag (pET28-MHL, TEV site) (N, cleaved yes); made in house; host or cells: E. coli BL21(DE3)
Method: The Plasmodium and human GRP78 NBD differences were further characterized by measuring their interaction with ATP, ADP, and several compounds referenced in the literature as GRP78 inhibitors (Fig. 3a). Initially, their binding was determined using a DSF (Differential Scanning Fluorimetry) assay. In this assay, an interaction between the chaperone and a compound was measured as a change in the protein’s melting temperature (Tm), by subtracting the Tm of the protein by itself to the melting value of the protein in the presence of the compound. Differences above or below 1 °C between the melting temperatures (ΔTm) were considered indicative of a protein-compound interaction. As expected, the Plasmodium GRP78 chaperone interacted with both ATP and ADP. Four of the six compounds tested had significant effects on protein thermal stability (Fig. 3b).
DSF screening was carried out using a CFX96 Touch Real-Time PCR Detection System (BioRad, California). The PfGRP78-FL, PfGRP78-NBD wild type and mutant, and human GRP78-NBD were buffered in 25 mM hepes pH 7.5, 250 mM NaCl and assayed in a 96-well format. […]. The concentration was optimized for each protein to avoid saturation of the fluorescence detector. The GRP78 inhibitors were used at a final concentration of 0.5 mM. SYPRO Orange (Life Technologies, USA) was added as a fluorescence probe in a dilution of 1:1000. The experiments were conducted between 18 °C to 90 °C at a heating rate of 1 °C per minute. The recorded fluorescence reads were fitted to the Boltzmann sigmoid function using DMAN software. The inflection point of each fitted curve is defined as the melting temperature (Tm). The observed temperature shift, ΔTm, was recorded as the difference between Tm of the protein with ligand minus Tm of the protein without ligand. Thermal shifts above or below 1 °C were considered significant.

[6] = target: T4, PfGRP78-NBD mut (Y39F) (Plasmodium falciparum, UniProt Q05866, Y39F); assay: SPR (Biacore) binding to PfGRP78-NBD Y39F mutant; details: ± standard error, 25 °C, read-out: affinity constant (Kd) determined by SPR, PfGRP78-NBD mut
T4 construct: His-tag (pET28-MHL, TEV site) (N, cleaved yes); made in house; host or cells: E. coli BL21(DE3)
Method: To quantify the binding affinities of PfGRP78-NBD for the selected compounds, dissociation constants (Kd) were determined by surface plasmon resonance (SPR). […] Purified PfGRP78-FL, PfGRP78-NBD wild-type and mutant, and human GRP78-NBD were immobilized on a CM5 sensorchip using NHS/EDC coupling following the manufacturer protocol to a level of <10,000 RUs, a reference surfaces without immobilized proteins served as a control for nonspecific binding and refractive index changes. Seven different concentrations of the ligands between 0.4 nM to 1 mM, were injected in triplicate over the sensor chip at 30 µL/min in random order. The running buffer was 10 mM HEPES, pH 7.4, 150 mM NaCl, 0.005% P20, 1% DMSO and 2 mM MgCl2. Buffer only injections were used as blanks. The Biacore responses recorded during the 30 seconds of the injection were used to estimate the association constant (kon) and the 300 seconds after the injection were used to estimate the dissociation constant (koff). All dissociation and kinetic constants were estimated using double subtracted sensorgrams[40] using BiaEvaluation Software (GE Healthcare). All the reported parasite dissociation constants (Kd) were estimated with affinity analysis, and all the reported human Kds were calculated from kinetic constants.

[7] = system: HCT-116; assay: Growth inhibition of human cell line; assay type: cell-based
Method: as §3

[8] = target: T5, PfGRP78-FL (Plasmodium falciparum, UniProt Q05866, DEL449-452/N453V/P455G/Q454G/T226A); assay: DSF thermal shift, PfGRP78 full-length; assay type: binding; details: read-out: ΔTm (DSF), PfGRP78-FL
T5 construct: His-tag (TEV site) (N, cleaved yes); made in house; host or cells: E. coli BL21(DE3); gene synthesized by Life Technologies
Method: (§4) Initially, their binding was determined using a DSF (Differential Scanning Fluorimetry) assay. In this assay, an interaction between the chaperone and a compound was measured as a change in the protein’s melting temperature (Tm), by subtracting the Tm of the protein by itself to the melting value of the protein in the presence of the compound. Differences above or below 1 °C between the melting temperatures (ΔTm) were considered indicative of a protein-compound interaction.
(§5) DSF screening was carried out using a CFX96 Touch Real-Time PCR Detection System (BioRad, California). The PfGRP78-FL, PfGRP78-NBD wild type and mutant, and human GRP78-NBD were buffered in 25 mM hepes pH 7.5, 250 mM NaCl and assayed in a 96-well format. The final concentration of the protein sample was optimized between 0.05 and 0.2 mg/ml for each protein. The concentration was optimized for each protein to avoid saturation of the fluorescence detector. The GRP78 inhibitors were used at a final concentration of 0.5 mM. SYPRO Orange (Life Technologies, USA) was added as a fluorescence probe in a dilution of 1:1000.

[9] = target: T2, huGRP78-NBD; assay: DSF thermal shift, human GRP78-NBD; assay type: binding; details: compound 0.5 mM
Method: as §4, §5

[10] = ± standard error, affinity analysis, 25 °C
[11] = ± standard error, calculated from kinetic constants, 25 °C
[12] = Plasmodium falciparum, 3D7, 72 h
[13] = Plasmodium falciparum, W2, 72 h

T2 sequence (P11021 26-407 limits assumed): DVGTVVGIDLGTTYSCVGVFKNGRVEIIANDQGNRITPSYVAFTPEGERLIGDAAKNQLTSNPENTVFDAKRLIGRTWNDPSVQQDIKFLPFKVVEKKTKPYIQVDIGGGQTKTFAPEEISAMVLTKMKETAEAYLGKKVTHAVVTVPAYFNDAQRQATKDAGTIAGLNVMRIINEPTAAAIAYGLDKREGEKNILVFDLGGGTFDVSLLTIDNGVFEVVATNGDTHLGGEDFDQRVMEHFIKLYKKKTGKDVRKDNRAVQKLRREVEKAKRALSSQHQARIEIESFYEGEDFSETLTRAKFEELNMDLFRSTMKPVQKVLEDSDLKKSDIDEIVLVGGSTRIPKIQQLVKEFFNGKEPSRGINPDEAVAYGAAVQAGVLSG

Row | Structure (SMILES) | affinity constant (Kd) determined by SPR, PfGRP78-NBD wt [1, 10] | affinity constant (Kd) determined by SPR, huGRP78-NBD [2, 11] | DSF effect on thermal stability of PfGRP78-NBD [5] | EC50 [3, 12] | EC50 [4, 13] | other results
1 | CN(NC(=O)CC(=O)NN(C)C(=S)c1ccccc1)C(=S)c1ccccc1 [Elesclomol] | N.B. | N.B. | non-binders | – | – | EC50 ([3]; Plasmodium falciparum, 3D7, chloroquine-sensitive strain, 72 hours, average of three ± SD): 0.05 ± 0.017 µM; EC50 ([4]; Plasmodium falciparum, W2, chloroquine-resistant strain, 72 hours, average of three ± SD): 0.06 ± 0.01 µM
2 | Nc1ncnc2c1ncn2[C@@H]1O[C@H](COP(=O)(O)OP(=O)(O)OP(=O)(O)O)[C@@H](O)[C@H]1O [ATP] | – | – | interacted | – | – | fold decrease in affinity of malaria chaperone compared to the human counterpart ([1]; SPR Kd, PfGRP78-NBD vs huGRP78-NBD): 23 fold; Kd ([1]; ± standard error, affinity analysis, 25 °C, read-out: affinity constant (Kd) determined by SPR, PfGRP78-NBD wt): 333 ± 74 µM; Kd [6]: 312 ± 15 µM; Kd ([2]; ± standard error, calculated from kinetic constants, 25 °C, read-out: affinity constant (Kd) determined by SPR, huGRP78-NBD): 14 ± 7 µM
3 | C[C@H]1[C@@H](O)O[C@@H]2O[C@@]3(C)CC[C@H]4[C@H](C)CC[C@@H]1[C@@]24OO3 [DHA] | – | – | – | – | – | EC50 ([3]; chloroquine-sensitive strain, 72 hours, average of three ± SD): 0.0004 ± 7e-05 µM; EC50 ([4]; chloroquine-resistant strain, 72 hours, average of three ± SD): 0.0001 ± 2e-05 µM
4 | N#Cc1ccc(COCC2OC(n3c(NCc4ccc(Cl)c(Cl)c4)nc4c(N)ncnc43)C(O)C2O)cc1 (centres unmarked) [VER-155008] | – | – | increased the thermal stability | 82.1 ± 49.7 µM | 39.5 µM | Kd [1]: 164 ± 13.6 µM; EC50 ([7]; HCT-116, human cell line, average of three ± SD, read-out: EC50, growth inhibition, HCT-116): 15.71 ± 0.07 µM
5 | CCN(CC)CCCC(C)Nc1ccnc2cc(Cl)ccc12 (centres unmarked) [CQ, chloroquine] | – | – | – | 0.05 ± 0.011 µM | 0.23 ± 0.03 µM | –
6 | CCN(CC)c1ncnc2c1ncn2[C@H]1O[C@@H](COP(=O)(O)OP(=O)(O)C(Br)(Br)P(=O)(O)O)[C@H](O)[C@@H]1O [ARL-67156] | N.B. | N.B. | non-binders | – | – | –
7 | CCn1c(=O)/c(=C2\Sc3ccccc3N2C)s/c1=C\c1cccc[n+]1CC [MKT-077] | – | – | significant thermal destabilization | 0.07 ± 0.02 µM | 0.07 ± 0.03 µM | Kd [1]: 16.4 ± 1.7 µM; Kd [2]: 16 ± 0.17 µM; times more selective towards P. falciparum ([7]; HCT-116 vs P. falciparum EC50, Results text b30): 14 times; EC50 ([7]; Homo sapiens, HCT-116, read-out: EC50, growth inhibition, HCT-116): 0.98 ± 0.23 µM; ΔTm at 500 µM [8]: 0.6 °C; DSF effect on thermal stability of human GRP78-NBD [9]: destabilized
8 | C=Cc1cc(OC)c2c(c1)c(=O)oc1c2cc(OC)c2c(O)ccc(C3OC(C(C)O)C(O)C3O)c21 (centres unmarked) [Gilvocarcin V] | N.B. | N.B. | increased the thermal stability | 0.02 ± 0.004 µM | 0.08 ± 0.04 µM | affinity constant (Kd) determined by SPR, PfGRP78-NBD wt ([1]; ± standard error, affinity analysis, 25 °C, listed as Gilvocarcin A): too weak to accurately determine its dissociation constant; affinity constant (Kd) determined by SPR, huGRP78-NBD ([2]; ± standard error, calculated from kinetic constants, 25 °C, listed as Gilvocarcin A): too weak to accurately determine its dissociation constant
